In patent publication US20200255492A1, “LEPTIN PEPTIDES AND THEIR USE FOR TREATING NEUROLOGICAL DISORDERS” (UNIVERSITY OF DUNDEE, priority 2017, published 2020):

Assays:
[1] = system: juvenile hippocampal slices; test: HFS-induced synaptic plasticity and its inhibition by Aβ1-42; format: cell-based, Sprague Dawley rats; settings: for synaptic transmission after HFS in slices exposed to Aβ1-42: 25 nM before Aβ1-42
Description: Parasagittal hippocampal slices (300 μm) were prepared from either P13-21 or 12-24-week-old male Sprague Dawley rats as previously (Moult et al. 2010). Brains were rapidly removed and placed in ice-cold artificial CSF (aCSF; bubbled with 95% O2 and 5% CO2) containing the following (in mm): 124 NaCl, 3 KCl, 26 NaHCO3, 1.25 NaH2PO4, 2 CaCl2, 1 MgSO4, and 10 d-glucose. Once prepared, parasagittal slices were allowed to recover at room temperature in oxygenated aCSF for 1 h before use. Slices were transferred to a submerged chamber maintained at room temperature and perfused with artificial cerebrospinal fluid at 2 ml min^−1. Standard extracellular recordings were used to monitor evoked field excitatory postsynaptic potentials (fEPSP) from stratum radiatum. The Schaffer collateral-commissural pathway was stimulated (constant voltage; 0.1 ms) at 0.033 Hz, using a stimulus intensity that evoked a peak amplitude ˜50% of the maximum. Synaptic potentials were low pass filtered at 2 kHz and digitally sampled at 10 kHz. The fEPSP slope was measured and expressed relative to baseline. Synaptic records are the average of 4 consecutive responses and stimulus artefacts are blanked for clarity. Recordings were made using an Axopatch 200B amplifier and analyzed using LTP v2.4 software. In synaptic plasticity studies, the degree of potentiation was calculated 30-35 min after HFS and expressed as a percentage of baseline±standard error of mean (SEM).
Several studies indicate that soluble Aβ oligomers impair activity-dependent synaptic plasticity, as exposure to Aβ inhibits hippocampal LTP (Shankar et al. 2008; Li et al. 2009) and enhances LTD (Shankar et al. 2008). Moreover, our recent studies indicate that leptin reverses the detrimental effects of Aβ1-42 on both LTP and LTD (Doherty et al. 2013). Thus we assessed if either of the fragments mirrored the protective actions of leptin on hippocampal synaptic plasticity. Initially we determined that application of leptin prevented the acute effects of Aβ1-42 on LTP. In control slices, synaptic plasticity was induced using high frequency stimulation (HFS; 100 Hz 10 trains of 8 stimuli) which increased synaptic transmission to 127±3.4% of baseline (n=8; P<0.01).

[2] = system: tau in hippocampal neurons; test: Immunocytochemistry of endogenous tau and tau/PSD-95 co-localization; format: cell-based, Sprague-Dawley rats; settings: for % co-localization of tau and PSD-95 in Aβ1-42-treated neurons / relative tau intensity in Aβ1-42-treated neurons: Aβ1-42 1 μM plus leptin/fragment 10 nM or SB216763 100 nM
Description: Hippocampal cultures were prepared as previously (Moult et al, 2010). Neonatal Sprague-Dawley rats (1-3 d old) were […] killed by cervical dislocation in accordance with the UK Animals (Scientific Procedures Act) 1986 legislation. Hippocampi were removed, and after washing in HEPES-buffered saline comprising (mM) 135 NaCl; 5 KCl; 1 CaCl2; 1 MgCl2; 10 HEPES; and 25 D-glucose at […], were treated with papain (1.5 mg ml21; Sigma-Aldrich) for 20 min at 37° C. Dissociated cells were plated onto sterile dishes (35 mm diameter; Greiner Bio-One, Kremsmun-ster, Austria) treated with poly-D-lysine (20 μg ml^−1; 1-2 h). Cultures were maintained in serum replacement medium (SR2; Sigma-Aldrich) in a humidified atmosphere of 5% CO2 and […] at 37° C. for up to 2 wk.
Immunocytochemistry was conducted on primary hippocampal cultures (7-14 DIV). Prior to labelling with antibodies, neurons were washed with HBS containing glycine (0.01 mM) and incubated with agents for 1 h at room temperature. Cultures were fixed with 4% paraformaldehyde for 5 min, then permeabilized with 0.1% Triton X-100 for 5 min. To label endogenous tau, neurons were incubated with a rabbit anti-tau (Ab-217; Genscript) primary antibody (1:200 dilution) at room temperature for 30 min, followed by incubation with an Alexa Fluor555 donkey anti-rabbit (1:250, Invitrogen) secondary antibody for an additional 30 min duration. To assess the % co-localisation of tau at synapses, neurons were dual labelled with an antibody against the synaptic marker, PSD-95 (mouse anti-PSD-95; 1:500, Thermo Fisher) followed by application of an Alexa Fluor488 goat anti-mouse secondary antibody (1:500, Invitrogen).
A Zeiss LSM510 confocal microscope was used for image acquisition and analysis. Images were obtained using a 10-s scan speed in single tracking mode or multi-tracking mode for dual labelling experiments. The intensity of immunostaining was measured off-line using Lasersharp software (Zeiss Lasersharp), whereby analysis lines of 50 μm length were drawn along randomly selected dendritic regions. All data were obtained from at least three different cultures from different animals. Imaging conditions including illumination intensity and photomultiplier gains were kept constant between treatments for each experiment. In addition, data were normalised relative to the mean fluorescence intensity obtained from control neurons. For synaptic co-localisation experiments, tau and PSD-95 positive immunostaining were compared. The number of tau-positive sites that co-localized with PSD-95 positive sites were counted and expressed as a percentage of total positive sites (peaks of intensity).

hippocampal cultures = test: Synaptophysin staining and surface GluA1-synaptophysin colocalization; format: cell-based, Sprague Dawley rats; settings: for colocalization between surface GluA1 and synaptophysin immunostaining: control 43±5.4%; for synaptophysin staining: leptin 50 nM, 30 min
Description: Hippocampal cultures were prepared from neonatal Sprague Dawley rats as before (O'Malley et al. 2007). Briefly, neonatal Sprague Dawley rats (1-3 days old) were killed by cervical dislocation in accordance with Schedule 1 of the United Kingdom Government Animals (Scientific Procedures) Act, 1986 and the hippocampi removed. After washing in HEPES buffered saline (HBS) comprising (mM): NaCl 135; KCl 5; CaCl2 1; MgCl2 1; HEPES 10; D-glucose 25 at pH 7.4; cells were treated with protease Type X and Type XIV (0.5 mg/ml; Sigma) for 25 min at room temperature. Dissociated cells were plated onto sterile dishes (Falcon 3001) treated with poly-1-lysine (20 μg/ml; 1-2 h) and maintained in MEM with serum replacement-2 (Sigma) in a humidified atmosphere of 5% CO2 and […] at 37° C. for up to 3 weeks.
To monitor GluA1 surface expression, immunocytochemistry was performed on hippocampal cultures (7-14 DIV) as before (Moult et al. 2010). […] Neurons were then fixed with 4% paraformaldehyde (5 min) before adding an appropriate fluorescently labelled secondary.
As excitatory synaptic strength is governed by the density of AMPA receptors expressed at synapses, the effects on synaptic AMPA receptors was examined by comparing the colocalization between surface GluA1 and synaptophysin immunolabelling in hippocampal cultures (Moult et al. 2010). […] Similarly, in hippocampal neurons treated with leptin (116-130), synaptophysin staining was increased to 122±9% (n=36; P<0.05) and a significant increase (to 64±4.9%; n=36; P<0.01) in GluA1-synaptophysin colocalization was observed (FIG. 2E). Conversely, exposure to leptin (22-56) had no significant effect on either synaptophysin staining (105±9%; n=36; P>0.05) or the degree of colocalization (49±5.4%; n=36; P>0.05; FIG. 2E).

Substance: Aβ1-42: amyloid beta 1-42, toxin used in the AD models [reference compound]
- synaptic transmission after HFS, Aβ peptide alone ([1]; control slices 127±3.4%, 40 min): 96±7.5 % of baseline
- % co-localization of tau and PSD-95, Aβ peptide alone ([2]; 1 μM): increases % co-localization between endogenous tau and PSD-95
- relative tau intensity at dendrites, Aβ peptide alone ([2]; 1 μM): increased endogenous tau expression compared to control

Substance: SCSLPQTSGLQKPES (listed as Mus musculus) [leptin (116-130)]
- colocalization between surface GluA1 and synaptophysin immunostaining (hippocampal cultures): 64±4.9%
- synaptophysin staining (hippocampal cultures): 122±9 % of control
- synaptic transmission after HFS in slices exposed to Aβ1-42 [1]: 136±5.5 % of baseline
- % co-localization of tau and PSD-95 in Aβ1-42-treated neurons [2]: prevented Aβ1-42-driven movement of tau to synapses
- relative tau intensity in Aβ1-42-treated neurons [2]: reducing dendritic tau levels

Substance: leptin (22-56): leptin fragment amino acids 22-56 (Bachem), comparison fragment (VPIQKVQDDTKTLIKTIVTRINDISHTQSVSSKQK; UniProt P41159 22-56, looked up, fragment) [reference compound]
- colocalization between surface GluA1 and synaptophysin immunostaining (hippocampal cultures): 49±5.4%
- synaptophysin staining (hippocampal cultures): 105±9 % of control
- synaptic transmission after HFS in slices exposed to Aβ1-42 [1]: 107±3.3 % of baseline

Substance: leptin: the metabolic hormone leptin, whole (full length) leptin molecule; human leptin from Sigma in SH-SY5Y work
- colocalization between surface GluA1 and synaptophysin immunostaining (hippocampal cultures): 62±4.4%
- synaptophysin staining (hippocampal cultures): 144±9 % of control
- synaptic transmission after HFS in slices exposed to Aβ1-42 [1]: 135±6.3 % of baseline
- % co-localization of tau and PSD-95 in Aβ1-42-treated neurons [2]: prevented the Aβ1.42-driven movement of tau to synapses
- relative tau intensity in Aβ1-42-treated neurons [2]: reducing the dendritic levels of tau to near control levels
